# Laboratory results published in patent US10280184B2, “Heterocyclic kinase inhibitors” (AbbVie Inc., priority 2014, dated 2019).
# Target: CSF-1R (Homo sapiens (Human), UniProt P07333)
# Test: In vitro CSF-1R kinase activity measured by trFRET
# Type: biochemical
# Details: recombinant human catalytic domain (aa 538-910), 0.1 mM ATP; read-out: CSF-1R enzyme IC50
# Description: In Vitro CSF-1R Kinase Activity Measured by Time-Resolved Fluorescence Resonance Energy Transfer (trFRET)
# The CSF-1R construct corresponds to recombinant human catalytic domain (aa 538-910), which was purchased from Invitrogen (cat #PV4092). CSF-1R was mixed with peptide substrate (biotin-TYR1, Sequence: Biotin-(Ahx)-GAEEEIYAAFFA-COOH, 4 μM final) at varying inhibitor concentrations in reaction buffer: 50 mM MOPSO pH 6.5, 10 mM MgCl2, 2 mM MnCl2, 2.5 mM DTI, 0.01% BSA, 0.1 mM Na3VO4 and 0.1 mM ATP. After about 60 min incubation at rt, the reaction was quenched by addition of EDTA (final concentration: 100 mM) and developed by addition of detection reagents (final approximate concentrations: 30 mM HEPES pH 7.0, 0.06% BSA, 0.006% Tween-20, 0.24 M KF, 80 ng/mL PT66K (europium labeled anti-phosphotyrosine antibody cat #61T66KLB Cisbio, Bedford, Mass.) and 0.6 μg/mL SAXL (Phycolink streptavidin-allophycocyanin acceptor, cat #PJ25S, Prozyme, San Leandro, Calif.). The developed reaction was incubated in the dark for about 60 min at rt, then read via a time-resolved fluorescence detector (Rubystar, BMG) using a 337 nm laser for excitation and monitoring emission wavelength at 665 nm. Within the linear range of the assay, the observed signal at 665 nm was directly related to phosphorylated product and can be used to calculate the IC50 values.
# Chain of CSF-1R (P07333 538-910): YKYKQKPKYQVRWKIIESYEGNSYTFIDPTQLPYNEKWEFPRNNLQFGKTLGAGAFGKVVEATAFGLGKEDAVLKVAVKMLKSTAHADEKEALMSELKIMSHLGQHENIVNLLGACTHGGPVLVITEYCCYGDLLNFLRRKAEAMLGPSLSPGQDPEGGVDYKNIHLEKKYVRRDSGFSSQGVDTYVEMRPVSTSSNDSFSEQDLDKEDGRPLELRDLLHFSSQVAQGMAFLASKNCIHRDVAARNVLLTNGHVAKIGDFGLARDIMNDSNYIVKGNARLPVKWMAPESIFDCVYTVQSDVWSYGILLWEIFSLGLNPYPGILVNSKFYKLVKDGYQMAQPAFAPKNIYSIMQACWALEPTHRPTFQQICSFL
row,Structure (SMILES),IC50 [nM]
1,"CC(C)n1cc(Nc2nc(C3CCCCC3)cn3ncnc23)cn1 [E.1.1, 6-cyclohexyl-N-(1-isopropyl-1H-pyrazol-4-yl)-[1,2,4]triazolo[1,5-a]pyrazin-8-amine]",< 100
2,Cn1cc(Nc2nc([C@H]3CC[C@H](C)CC3)cn3ncnc23)cn1 [E.1.3],< 100
3,"Cn1cc(Nc2nc([C@@H]3CCC[C@@H](O)C3)cn3ncnc23)cn1 (single isomer, unassigned) [Example 10]",< 100
